Reference: patent US11472811B2, “Pyrazolotriazolopyrimidine derivatives as A2A receptor antagonist” (BEIGENE, LTD., priority 2018, dated 2022)

Target: human A2A receptor (A2AR) (Homo sapiens (Human), UniProt P29274)
Assay: Luciferase reporter assay (HEK293-A2AR-luc2p/CRE/Hygro cells)
Format: cell-based
Settings: 3 nM CGS21680, 5 h incubation
Experimental: HEK293 cells were maintained in Dulbecco's modified Eagle's medium (DMEM, Gibco) supplemented with 10% fetal bovine serum (FBS, Thermo Scientific), 100 units/mL penicillin (Gibco), and 0.1 mg/mL streptomycin (Gibco) in a humidified 37° C. environment with 5% CO2. Plasmid encoding wild-type human A2A receptor (A2AR) (in pcDNA3.1) was synthesized by Genscript (Nanjing, China). Transfection of the plasmids was performed in 6-well plates with 4×10^5 cells using Lipofectamin 2000 (ThermoFisher Scientific) according to the instruction of the manufacturer. Cell clones that stably express A2AR were established and maintained in the same complete medium as the HEK293 cells in addition of G-418 (Gibico). Expression level of A2AR in each single cell clone was determined using immunoblotting and FACS method. HEK293-A2AR stable cells were then transfected with pGL4.29[luc2P/CRE/Hygro] (Promega) luciferase reporter plasmid for establishing the HEK293-A2AR-luc2p/CRE/Hygro stable cell line.
HEK293-A2AR-luc2p/CRE/Hygro cells were seeded at a density of 5,000 cells/well in DMEM with 1% FBS and 1 U/mL adenosine deaminase (ADA) (Sigma). After 18 h, the cells were treated with 3 nM CGS21680 plus a series dilution of A2AR antagonist, the compounds disclosed herein at the concentration of 0.1˜10000 nM, prepared in DMEM with 1% FBS. After 5 h incubation, the luciferase activity in cells were measured using the Bright-Glo Luciferase Assay System (Promega) according to manufacturer's instructions. The luminescence signal was measured using a PHERAstar FS plate reader (BMG Labtech). […] Maximal luminescence intensity was determined in the presence of 3 nM CGS21680 and was set as 100%. The IC50 value was calculated from a dose dependent inhibition curve across the range of compound concentrations.

Sequence of human A2A receptor (A2AR) (P29274 whole entry): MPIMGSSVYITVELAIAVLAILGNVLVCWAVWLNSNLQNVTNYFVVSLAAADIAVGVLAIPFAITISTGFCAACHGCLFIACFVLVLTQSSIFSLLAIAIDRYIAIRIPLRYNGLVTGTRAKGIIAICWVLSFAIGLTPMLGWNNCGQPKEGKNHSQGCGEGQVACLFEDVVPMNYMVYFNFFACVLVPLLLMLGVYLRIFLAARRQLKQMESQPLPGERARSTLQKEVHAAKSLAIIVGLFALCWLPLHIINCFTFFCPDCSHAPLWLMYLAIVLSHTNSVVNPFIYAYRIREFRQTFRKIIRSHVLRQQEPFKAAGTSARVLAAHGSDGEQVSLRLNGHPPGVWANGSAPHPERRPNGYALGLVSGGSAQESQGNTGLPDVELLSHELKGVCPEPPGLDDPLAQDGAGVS

SMILES	IC50
CC(C(=O)NCC1(O)CC1)(c1ccccc1)n1ncc2c1nc(N)n1nc(-c3ccco3)nc21 (centres unmarked) [Example 88, 2-(5-amino-2-(furan-2-yl)-7H-pyrazolo[4,3-e][1,2,4]triazolo[1,5-c]pyrimidin-7-yl)-N-((1-hydroxycyclopropyl)methyl)-2-phenylpropanamide]	437 nM
Nc1nc2c(cnn2C(C(=O)NCC2(O)COC2)c2ccccc2)c2nc(-c3ccco3)nn12 (centres unmarked) [Example 82, 2-(5-amino-2-(furan-2-yl)-7H-pyrazolo[4,3-e][1,2,4]triazolo[1,5-c]pyrimidin-7-yl)-N-((3-hydroxyoxetan-3-yl)methyl)-2-phenylacetamide]	4.5 nM
CC(C(=O)NC[C@@H]1CCCO1)(c1ccccc1)n1ncc2c1nc(N)n1nc(-c3ccco3)nc21 (stereo partly drawn) [Example 51, 2-(5-amino-2-(furan-2-yl)-7H-pyrazolo[4,3-e][1,2,4]triazolo[1,5-c]pyrimidin-7-yl)-2-phenyl-N—(((S)-tetrahydrofuran-2-yl)methyl)propanamide]	2.7 nM
CNCCNC(=O)C(C)(c1ccccc1)n1ncc2c1nc(N)n1nc(-c3ccco3)nc21 (centres unmarked) [Example 81, 2-(5-amino-2-(furan-2-yl)-7H-pyrazolo[4,3-e][1,2,4]triazolo[1,5-c]pyrimidin-7-yl)-N-(2-(methylamino)ethyl)-2-phenylpropanamide]	120 nM
CC(C(=O)NC[C@H]1CCOC1)(c1ccccc1)n1ncc2c1nc(N)n1nc(-c3ccco3)nc21 (stereo partly drawn) [Example 54, 2-(5-amino-2-(furan-2-yl)-7H-pyrazolo[4,3-e][1,2,4]triazolo[1,5-c]pyrimidin-7-yl)-2-phenyl-N—(((R)-tetrahydrofuran-3-yl)methyl)propanamide]	8.1 nM
CCOc1ccccc1CNC(=O)C(c1ccccc1)n1ncc2c1nc(N)n1nc(-c3ccco3)nc21 (centres unmarked) [Example 6, 2-(5-amino-2-(furan-2-yl)-7H-pyrazolo[4,3-e][1,2,4]triazolo[1,5-c]pyrimidin-7-yl)-N-(2-triethoxybenzyl)-2-phenylacetamide]	0.9 nM
CC(C(=O)NCc1ccccc1)(c1ccccc1)n1ncc2c1nc(N)n1nc(-c3ccco3)nc21 (centres unmarked) [Example 35, 2-(5-amino-2-(furan-2-yl)-7H-pyrazolo[4,3-e][1,2,4]triazolo[1,5-c]pyrimidin-7-yl)-N-benzyl-2-phenylpropanamide]	10.7 nM
C[C@](C(=O)N[C@@H]1CCCC[C@@H]1O)(c1ccccc1)n1ncc2c1nc(N)n1nc(-c3ccco3)nc21 [Example 58B, (R)-2-(5-amino-2-(furan-2-yl)-7H-pyrazolo[4,3-e][1,2,4]triazolo[1,5-c]pyrimidin-7-yl)-N-((1R,2S)-2-hydroxycyclohexyl)-2-phenylpropanamide]	1.3 nM
CC(C(=O)NCCN1CCOCC1)(c1ccccc1)n1ncc2c1nc(N)n1nc(-c3ccco3)nc21 (centres unmarked) [Example 41, 2-(5-amino-2-(furan-2-yl)-7H-pyrazolo[4,3-e][1,2,4]triazolo[1,5-c]pyrimidin-7-yl)-N-(2-morpholinoethyl)-2-phenylpropanamide]	9.3 nM
CCCC(C(=O)NCc1ccccc1OC)n1ncc2c1nc(N)n1nc(-c3ccco3)nc21 (centres unmarked) [Example 21, 2-(5-amino-2-(furan-2-yl)-7H-pyrazolo[4,3-e][1,2,4]triazolo[1,5-c]pyrimidin-7-yl)-N-(2-methoxybenzyl)pentanamide]	15.3 nM
CC(C(=O)NCc1ccccn1)(c1ccccc1)n1ncc2c1nc(N)n1nc(-c3ccco3)nc21 (centres unmarked) [Example 66, 2-(5-amino-2-(furan-2-yl)-7H-pyrazolo[4,3-e][1,2,4]triazolo[1,5-c]pyrimidin-7-yl)-2-phenyl-N-(pyridin-2-ylmethyl)propanamide]	6.2 nM
C[C@@H](NC(=O)C(c1ccccc1)n1ncc2c1nc(N)n1nc(-c3ccco3)nc21)c1ccccc1 (stereo partly drawn) [Example 10, 2-(5-amino-2-(furan-2-yl)-7H-pyrazolo[4,3-e][1,2,4]triazolo[1,5-c]pyrimidin-7-yl)-2-phenyl-N—((R)-1-phenylethyl)acetamide]	16.5 nM
CC(C(=O)NCc1ccncc1)(c1ccccc1)n1ncc2c1nc(N)n1nc(-c3ccco3)nc21 (centres unmarked) [Example 83, 2-(5-amino-2-(furan-2-yl)-7H-pyrazolo[4,3-e][1,2,4]triazolo[1,5-c]pyrimidin-7-yl)-2-phenyl-N-(pyridin-4-ylmethyl)propenamide]	11.2 nM
CC1(O)CCC(NC(=O)[C@](C)(c2ccccc2)n2ncc3c2nc(N)n2nc(-c4ccco4)nc32)CC1 (stereo in doubt) [Example 33A, (S)-2-(5-amino-2-(furan-2-yl)-7H-pyrazolo[4,3-e][1,2,4]triazolo[1,5-c]pyrimidin-7-yl)-(trans)-N-(4-hydroxy-4-methylcyclohexyl)-2-phenylpropanamide]	13.2 nM
CC(C(=O)N[C@@H]1CC[C@@H](O)C1)(c1ccccc1)n1ncc2c1nc(N)n1nc(-c3ccco3)nc21 (stereo partly drawn) [Example 94, 2-(5-amino-2-(furan-2-yl)-7H-pyrazolo[4,3-e][1,2,4]triazolo[1,5-c]pyrimidin-7-yl)-N-((1R,3R)-3-hydroxycyclopentyl)-2-phenylpropanamide]	11.2 nM
COCCOc1ccc(N2CCC(NC(=O)C(C)(c3ccccc3)n3ncc4c3nc(N)n3nc(-c5ccco5)nc43)CC2)cc1 (centres unmarked) [Example 46, 2-(5-amino-2-(furan-2-yl)-7H-pyrazolo[4,3-e][1,2,4]triazolo[1,5-c]pyrimidin-7-yl)-N-(1-(4-(2-methoxyethoxy)phenyl)piperidin-4-yl)-2-phenylpropanamide]	10.9 nM

Continued, values first:

IC50	SMILES
0.9 nM	COc1ccc(CNC(=O)[C@@](C)(c2ccccc2)n2ncc3c2nc(N)n2nc(-c4ccco4)nc32)nc1 [Example 113B, (R)-2-(5-amino-2-(furan-2-yl)-7H-pyrazolo[4,3-e][1,2,4]triazolo[1,5-c]pyrimidin-7-yl)-N-((5-methoxypyridin-2-yl)methyl)-2-phenylpropanamide]
2.2 nM	CC(C(=O)NCc1cccc(F)n1)(c1ccccc1)n1ncc2c1nc(N)n1nc(-c3ccco3)nc21 (centres unmarked) [Example 116, 2-(5-amino-2-(furan-2-yl)-7H-pyrazolo[4,3-e][1,2,4]triazolo[1,5-c]pyrimidin-7-yl)-N-((6-fluoropyridin-2-yl)methyl)-2-phenylpropanamide]
26.5 nM	Cc1cccc(CCNC(=O)[C@@](C)(c2ccccc2)n2ncc3c2nc(N)n2nc(-c4ccco4)nc32)n1 [Example 150B, (R)-2-(5-amino-2-(furan-2-yl)-7H-pyrazolo[4,3-e][1,2,4]triazolo[1,5-c]pyrimidin-7-yl)-N-(2-(6-methylpyridin-2-yl)ethyl)-2-phenylpropanamide]
7.9 nM	CC(C(=O)N[C@H]1CC[C@@H](O)C1)(c1ccccc1)n1ncc2c1nc(N)n1nc(-c3ccco3)nc21 (stereo partly drawn) [Example 136, 2-(5-amino-2-(furan-2-yl)-7H-pyrazolo[4,3-e][1,2,4]triazolo[1,5-c]pyrimidin-7-yl)-N-((1S,3R)-3-hydroxycyclopentyl)-2-phenylpropanamide]
2.1 nM	C[C@](C(=O)NCc1cccc(C(F)(F)F)n1)(c1ccccc1)n1ncc2c1nc(N)n1nc(-c3ccco3)nc21 [Example 144B, (R)-2-(5-amino-2-(furan-2-yl)-7H-pyrazolo[4,3-e][1,2,4]triazolo[1,5-c]pyrimidin-7-yl)-2-phenyl-N-((6-(trifluoromethyl)pyridin-2-yl)methyl)propanamide]
24.7 nM	CN1CCN(CCNC(=O)C(C)(c2ccccc2)n2ncc3c2nc(N)n2nc(-c4ccco4)nc32)CC1 (centres unmarked) [Example 147, 2-(5-amino-2-(furan-2-yl)-7H-pyrazolo[4,3-e][1,2,4]triazolo[1,5-c]pyrimidin-7-yl)-N-(2-(4-methylpiperazin-1-yl)ethyl)-2-phenylpropanamide]
10.4 nM	CC(C(=O)NCC1CCOCC1)(c1ccccc1)n1ncc2c1nc(N)n1nc(-c3ccco3)nc21 (centres unmarked) [Example 97, 2-(5-amino-2-(furan-2-yl)-7H-pyrazolo[4,3-e][1,2,4]triazolo[1,5-c]pyrimidin-7-yl)-2-phenyl-N-((tetrahydro-2H-pyran-4-yl)methyl)propenamide]
9 nM	C[C@](C(=O)NC1CCSCC1)(c1ccccc1)n1ncc2c1nc(N)n1nc(-c3ccco3)nc21 [Example 145B, (R)-2-(5-amino-2-(furan-2-yl)-7H-pyrazolo[4,3-e][1,2,4]triazolo[1,5-c]pyrimidin-7-yl)-2-phenyl-N-(tetrahydro-2H-thiopyran-4-yl)propanamide]
1.9 nM	COc1ccccc1C(C)(C(=O)N[C@H]1CC[C@@H](O)CC1)n1ncc2c1nc(N)n1nc(-c3ccco3)nc21 (relative stereo) [Example 139, 2-(5-amino-2-(furan-2-yl)-7H-pyrazolo[4,3-e][1,2,4]triazolo[1,5-c]pyrimidin-7-yl)-N-((cis)-4-hydroxycyclohexyl)-2-(2-methoxyphenyl)propanamide]
0.6 nM	Cc1cccnc1CNC(=O)C(C)(c1ccccc1)n1ncc2c1nc(N)n1nc(-c3ccco3)nc21 (centres unmarked) [Example 111, 2-(5-amino-2-(furan-2-yl)-7H-pyrazolo[4,3-e][1,2,4]triazolo[1,5-c]pyrimidin-7-yl)-N-((3-methylpyridin-2-yl)methyl)-2-phenylpropanamide]
